System: moderate-to-severe chronic spontaneous urticaria (CSU)
Test: Phase 2 CSU study: urticaria activity score over 7 days (UAS7)
Format: in vivo, human
Details: ITT, 400 mg QPM
Excerpt: The study comprises a 12 week, randomized, double-blind, placebo-controlled, multi-center, dose-ranging efficacy and safety phase, followed by a 40 week open label extension (OLE) phase (see FIG. 1). The study consists of three phases and an optional OLE phase. […] Clinically, CSU is characterized by the spontaneous and recurrent appearance of pruritic hives. The proposed primary endpoints were the UAS7 at Week 12 in EU and EU reference countries and the ISS7 in the US. Regardless of where a participant was from, all assessments were the same. The UAS7 score is a composite score containing both the HSS7 and the ISS7. This allowed a global assessment of the two key components of urticaria: hives and itch. […] The UAS is a validated PRO measure. […] The daily UAS scores range from 0 to 6 point/day. […] Patients were to complete the UAS using the e-diary. […] The following secondary endpoints were to be analyzed using the same approach as for the primary endpoint: • Change from baseline in UAS7 at Week 4 • Change from baseline in UAS7 at Week 12 (for US and US reference countries) • Change from baseline in ISS7 at Week 12 (except US and US reference countries) • Change from baseline in HSS7 at Week 12 The following responder secondary endpoints were to be analyzed using the Cochran-Mantel-Haenszel test adjusted by region: • Proportion of participants with UAS7<6 at Week 12 • Proportion of participants with UAS7=0 at Week 12 Participants who received selected prohibited medications and/or rescue medications were to be considered as non-responders for time points after the medication usage. For other participants, all available data including those collected during the off-treatment period were to be used to determine the responder/non-responder status. Missing data were to be considered as non-responders.

In the case of CC(C)(C=C(C#N)C(=O)N1CCC[C@@H](n2nc(-c3ccc(Oc4ccccc4)cc3F)c3c(N)ncnc32)C1)N1CCN(C2COC2)CC1 [rilzabrutinib, (R)-2-[3-[4-amino-3-(2-fluoro-4-phenoxy-phenyl)pyrazolo[3,4-d]pyrimidin-1-yl]piperidine-1-carbonyl]-4-methyl-4-[4-(oxetan-3-yl)piperazin-1-yl]pent-2-enenitrile], the “Non-responder n (%), UAS7 = 0” value (Week 6) is reported as 37 (97.4) n (%), the “Non-responder n (%), UAS7 ≤6” value (Week 6) is reported as 35 (92.1) n (%) and the “OR for rilzabrutinib vs. placebo, UAS7 = 0” value (Week 6) is reported as 1.000. For the same compound, the “OR for rilzabrutinib vs. placebo, UAS7 ≤6” value (Week 6) was 0.540, the “RRD (%) for rilzabrutinib vs. placebo, UAS7 = 0” value (shortened to “RRD (%) … UAS7 = 0”) (Week 6) was 0.0 % and the “RRD (%) for rilzabrutinib vs. placebo, UAS7 ≤6” value (from here on “RRD (%) … UAS7 ≤6”) (Week 6) was −6.3%. For the same compound, the “Responder n (%), UAS7 = 0” value (Week 6) was 1 (2.6) n (%), the “Responder n (%), UAS7 ≤6” value (Week 6) was 3 (7.9) n (%) and the “Imputed non-responder n (%), UAS7 = 0” value (Week 7) was 6 (15.8) n (%). The “Imputed non-responder n (%), UAS7 ≤6” value (Week 7) was 6 (15.8) n (%), the “Non-responder n (%), UAS7 = 0” value (Week 7) was 37 (97.4) n (%) and the “Non-responder n (%), UAS7 ≤6” value (Week 7) was 37 (97.4) n (%). For the same compound, the “OR for rilzabrutinib vs. placebo, UAS7 = 0” value (Week 7) was 1.167, the “OR for rilzabrutinib vs. placebo, UAS7 ≤6” value (Week 7) was 0.278 and the “RRD (%) … UAS7 = 0” value (Week 7) was 0.4 %. For the same compound, the “RRD (%) … UAS7 ≤6” value (Week 7) was −7.3%, the “Responder n (%), UAS7 = 0” value (Week 7) was 1 (2.6) n (%) and the “Responder n (%), UAS7 ≤6” value (Week 7) was 1 (2.6) n (%). For the same compound, the “Imputed non-responder n (%), UAS7 = 0” value (Week 8) was 7 (18.4) n (%), the “Imputed non-responder n (%), UAS7 ≤6” value (Week 8) was 7 (18.4) n (%) and the “Non-responder n (%), UAS7 = 0” value (Week 8) was 37 (97.4) n (%). The “Non-responder n (%), UAS7 ≤6” value (Week 8) was 35 (92.1) n (%), the “OR for rilzabrutinib vs. placebo, UAS7 = 0” value (Week 8) was 0.527 and the “OR for rilzabrutinib vs. placebo, UAS7 ≤6” value (Week 8) was 0.502. For the same compound, the “RRD (%) … UAS7 = 0” value (Week 8) was −2.2 %, the “RRD (%) … UAS7 ≤6” value (Week 8) was −7.0% and the “Responder n (%), UAS7 = 0” value (Week 8) was 1 (2.6) n (%). For the same compound, the “Responder n (%), UAS7 ≤6” value (Week 8) was 3 (7.9) n (%), the “Imputed non-responder n (%), UAS7 = 0” value (Week 9) was 6 (15.8) n (%) and the “Imputed non-responder n (%), UAS7 ≤6” value (Week 9) was 6 (15.8) n (%). The “Non-responder n (%), UAS7 = 0” value (Week 9) was 37 (97.4) n (%), the “Non-responder n (%), UAS7 ≤6” value (Week 9) was 35 (92.1) n (%) and the “OR for rilzabrutinib vs. placebo, UAS7 = 0” value (Week 9) was 0.330. The “OR for rilzabrutinib vs. placebo, UAS7 ≤6” value (Week 9) was 0.773, the “RRD (%) … UAS7 = 0” value (Week 9) was −4.9 % and the “RRD (%) … UAS7 ≤6” value (Week 9) was −2.2 %. The “Responder n (%), UAS7 = 0” value (Week 9) was 1 (2.6) n (%), the “Responder n (%), UAS7 ≤6” value (Week 9) was 3 (7.9) n (%) and the “Imputed non-responder n (%), UAS7 = 0” value (Week 10) was 6 (15.8) n (%). For the same compound, the “Imputed non-responder n (%), UAS7 ≤6” value (Week 10) was 6 (15.8) n (%), the “Non-responder n (%), UAS7 = 0” value (Week 10) was 37 (97.4) n (%) and the “Non-responder n (%), UAS7 ≤6” value (Week 10) was 36 (94.7) n (%). For the same compound, the “OR for rilzabrutinib vs. placebo, UAS7 = 0” value (Week 10) was 0.235, the “OR for rilzabrutinib vs. placebo, UAS7 ≤6” value (Week 10) was 0.279 and the “RRD (%) … UAS7 = 0” value (Week 10) was −7.9 %. For the same compound, the “RRD (%) … UAS7 ≤6” value (Week 10) was −11.9%, the “Responder n (%), UAS7 = 0” value (Week 10) was 1 (2.6) n (%) and the “Responder n (%), UAS7 ≤6” value (Week 10) was 2 (5.3) n (%). For the same compound, the “Imputed non-responder n (%), UAS7 = 0” value (Week 11) was 7 (18.4) n (%), the “Imputed non-responder n (%), UAS7 ≤6” value (Week 11) was 7 (18.4) n (%) and the “Non-responder n (%), UAS7 = 0” value (Week 11) was 36 (94.7) n (%). The “Non-responder n (%), UAS7 ≤6” value (Week 11) was 35 (92.1) n (%), the “OR for rilzabrutinib vs. placebo, UAS7 = 0” value (Week 11) was 1.065 and the “OR for rilzabrutinib vs. placebo, UAS7 ≤6” value (Week 11) was 0.418. The “RRD (%) … UAS7 = 0” value (Week 11) was 0.3 %, the “RRD (%) … UAS7 ≤6” value (Week 11) was −9.4% and the “Responder n (%), UAS7 = 0” value (Week 11) was 2 (5.3) n (%). For the same compound, the “Responder n (%), UAS7 ≤6” value (Week 11) was 3 (7.9) n (%), the “Imputed non-responder n (%), UAS7 = 0” value (Week 12) was 10 (26.3) n (%) and the “Imputed non-responder n (%), UAS7 ≤6” value (Week 12) was 10 (26.3) n (%). For the same compound, the “Non-responder n (%), UAS7 = 0” value (Week 12) was 37 (97.4) n (%), the “Non-responder n (%), UAS7 ≤6” value (Week 12) was 36 (94.7) n (%) and the “OR for rilzabrutinib vs. placebo, UAS7 = 0” value (Week 12) was 0.194. For the same compound, the “OR for rilzabrutinib vs. placebo, UAS7 ≤6” value (Week 12) was 0.378, the “RRD (%) … UAS7 = 0” value (Week 12) was −10.0 % and the “RRD (%) … UAS7 ≤6” value (Week 12) was −7.6%. The “Responder n (%), UAS7 = 0” value (Week 12) was 1 (2.6) n (%).

Source: patent publication US20260256792A1, “TREATMENT OF CHRONIC SPONTANEOUS URTICARIA BY ADMINISTERING (R)-2-[3-[4-AMINO-3-(2-FLUORO-4-PHENOXY-PHENYL)PYRAZOLO[3,4-D]PYRIMIDIN-1-YL]PIPERIDINE-1-CARBONYL]-4-METHYL-4-[4-(OXETAN-3-YL)PIPERAZIN-1-YL]PENT-2-ENENITRILE” (priority 2023, published 2026)
